US20150307938A1, “METHOD TO IDENTIFY A NOVEL CLASS OF IMMUNOLOGIC ADJUVANTS” (Lancell, L.L.C., priority 2011, published 2015)

Tested on: skin
Experiment: Affymetrix microarray of skin, DBP-4 hr and analogs vs. untreated; gene selection by log-2 fold change, Wilcoxon, Kendall tau (Tables 8, 9)
Format: in vivo, mouse
Conditions: for Wilcoxon: DBP-4 hr vs. untreated, selected by p-value; for Kendall: selected by Kendall tau, expression vs. output
[1] = gene 1500032L24Rik NM_026914_at
[2] = gene 2210016L21Rik NM_028211_at
[3] = gene 4931408A02Rik NM_027627_at
[4] = gene 4933407C03Rik NM_028941_at
[5] = gene 5730494N06Rik NM_027478_at

SMILES: CCCCOC(=O)c1ccccc1C(=O)OCCCC [DBP, dibutylphthalate]
- Wilcoxon [1]: No
- Kendall [1]: Yes
- Wilcoxon [2]: No
- Kendall [2]: Yes
- Wilcoxon [3]: No
- Kendall [3]: Yes
- Wilcoxon [4]: No
- Kendall [4]: Yes
- Wilcoxon [5]: No
- Kendall [5]: Yes
- Wilcoxon (gene Ankrd24 NM_027480_at): No
- Kendall (gene Ankrd24 NM_027480_at): Yes
- Wilcoxon (gene Cby1 NM_028634_at): No
- Kendall (gene Cby1 NM_028634_at): Yes
- Wilcoxon (gene Ccdc123 NM_028120_at): No
- Kendall (gene Ccdc123 NM_028120_at): Yes
- Wilcoxon (gene Cdc42ep1 NM_027219_at): No
- Kendall (gene Cdc42ep1 NM_027219_at): Yes
- Wilcoxon (gene Cdca4 NM_028023_at): No
- Kendall (gene Cdca4 NM_028023_at): Yes
- Wilcoxon (gene Cenpv NM_028448_at): No
- Kendall (gene Cenpv NM_028448_at): Yes
- Wilcoxon (gene Chst14 NM_028117_at): No
- Kendall (gene Chst14 NM_028117_at): Yes
- Wilcoxon (gene Cnot8 NM_026949_at): No
- Kendall (gene Cnot8 NM_026949_at): Yes
- Wilcoxon (gene Ebpl NM_026598_at): No
- Kendall (gene Ebpl NM_026598_at): Yes
- Wilcoxon (gene Ict1 NM_026729_at): No
- Kendall (gene Ict1 NM_026729_at): Yes
- Wilcoxon (gene Ift80 NM_026641_at): No
- Kendall (gene Ift80 NM_026641_at): Yes
- Wilcoxon (gene Lrrfip2 NM_027742_at): No
- Kendall (gene Lrrfip2 NM_027742_at): Yes
- Wilcoxon (gene Med23 NM_027347_at): No
- Kendall (gene Med23 NM_027347_at): Yes
- Wilcoxon (gene Mlh1 NM_026810_at): No
- Kendall (gene Mlh1 NM_026810_at): Yes
- Wilcoxon (gene Mterfd3 NM_028832_at): No
- Kendall (gene Mterfd3 NM_028832_at): Yes
- Wilcoxon (gene Rnf135 NM_028019_at): No
- Kendall (gene Rnf135 NM_028019_at): Yes
- Wilcoxon (gene Rnf157 NM_027258_at): No
- Kendall (gene Rnf157 NM_027258_at): Yes
- Wilcoxon (gene Rrp1b NM_028244_at): No
- Kendall (gene Rrp1b NM_028244_at): Yes
- Wilcoxon (gene Slc25a35 NM_028048_at): No
- Kendall (gene Slc25a35 NM_028048_at): Yes
- Wilcoxon (gene Tmem55a NM_028264_at): No
- Kendall (gene Tmem55a NM_028264_at): Yes
- Wilcoxon (gene Tmem80 NM_027797_at): No
- Kendall (gene Tmem80 NM_027797_at): Yes
- Wilcoxon (gene Tmtc4 NM_028651_at): No
- Kendall (gene Tmtc4 NM_028651_at): Yes
- Wilcoxon (gene Zfyve21 NM_026752_at): No
- Kendall (gene Zfyve21 NM_026752_at): Yes
